Test results taken from patent US20200376287A1, “METHODS FOR INCREASING TGF-B SIGNALING” (TECHNION RESEARCH & DEVELOPMENT FOUNDATION LIMITED, priority 2019, published 2020).

System: neurons in the mid-posterior insular cortex (mpIC)
Test: Arc expression in the mpIC of Arc-dVenus reporter mice after oral consumption
Assay type: in vivo
Details: for response of neurons in the mpIC (Arc expression) to oral consumption: Arc-dVenus reporter mice, compared with water
Protocol: The expression of Arc was evaluated by immunohistochemical staining for GFP (green) to amplify the signal of dVenus and co-localized with DAPI nuclear staining (blue). Dotted lines are based on Allen Brain Atlas and depict the cytoarchitectonic layers of the insular cortex (granular insula; GI, dysgranular insula; DI, agranular insula; AI) and the claustrum (CI). Scale bar, 200 μm. (1B) A graph showing manual quantification of Arc-positive cells that were identified by GFP and DAPI double-positive staining per region of interest (ROI=[…]) in mice that were exposed to water or OVA. Student's t-test; mean±s.e.m; n=3, 4; **P<0.01. (1C) Maps showing the location of the insular cortex in mice (upper left). Arc-expressing neurons following oral consumption of OVA were found in the mid-posterior region of the insula (upper right) that comprises both gustatory and visceral cortices (lower panel). (1D) A location map and micrographs showing validation of the injection site in the mpIC. Representative image describing the expression of the inhibiting form of designer receptors exclusively activated by designer drugs (DREADDs; Gi) in neurons following stereotactic injection of a viral vector (AAV8-hSyn-hM4Di (Gi)-mCherry), in the GI and DI layers of the mpIC ((0.14-0.18) mm Anterior-Posterior (AP); (3.6-3.8) mm Medial-Lateral (ML); (2.5-2.6) mm Dorsal-Ventral (DV)).
FIGS. 5A-5F include fluorescent micrographs, graphs, and location maps, showing representation of aversive information in the mpIC. […] The expression of Arc was evaluated as described in FIG. 1A. Dotted lines are based on Allen Brain Atlas, and depict the cytoarchitectonic layers of the insular cortex (granular insula; GI, dysgranular insula; DI, agranular insula; AI) and the claustrum (CI). Scale bar, 200 μm. (5B) Manual quantification of Arc-positive cells in the region of interest (ROI=[…]) was performed as described in FIG. 1A in mice that consumed water or denatonium benzoate. Student's t-test; mean±s.e.m; n=3, 5; *P<0.05. (5C) The images show Arc expression in the mpIC of Arc-dVenus reporter mice that were exposed to OVA (left panel) or denatonium benzoate (right panel). The numbers (1-6) represent the layers of the cerebral cortex. Scale bar, 200 μm. (5D) Graphs represent the difference in total Arc expression (left) and the distribution of Arc-positive cells in the 3 cytoarchitectonic layers of the insular cortex (GI, DI, and AI) following exposure of mice to OVA or denatonium benzoate. […] (5F) Graphs depict the total difference in Arc-positive cells in the ⅔ layer of the cerebral cortex (left) of the mpIC and expression of Arc in this layer divided by the insular layers (GI, DI, and AI). Student's t-test; mean±s.e.m; n=3, 5; *P<0.05, **P<0.01.
Thus far, the inventors exposed the mice only to positive appetitive signals, however, whether the mpIC also responds to aversive information that can inform about the presence of pathogens, left unclear. To answer this question the inventors used the Arc reporter mice, except this time they were exposed to the bitter substance denatonium benzoate.

Molecule | response of neurons in the mpIC (Arc expression) to oral consumption | Arc-positive cells in the granular layer (GI) of the mpIC (denatonium benzoate (bitter) compared to OVA) | total number of activated neurons in the mpIC (denatonium benzoate compared to OVA) | Arc expression in the AI layer of the mpIC (OVA-consuming mice compared to mice exposed to denatonium benzoate)
CC[N+](CC)(CC(=O)Nc1c(C)cccc1C)Cc1ccccc1 [denatonium benzoate] | neurons in the mpIC also respond | less Arc-positive cells | no significant difference | –
ovalbumin (protein, UniProt P01012 2-386, looked up, orally consumed novel innocuous food antigen) Ovalbumin: GSIGAASMEFCFDVFKELKVHHANENIFYCPIAIMSALAMVYLGAKDSTRTQINKVVRFDKLPGFGDSIEAQCGTSVNVHSSLRDILNQITKPNDVYSFSLASRLYAEERYPILPEYLQCVKELYRGGLEPINFQTAADQARELINSWVESQTNGIIRNVLQPSSVDSQTAMVLVNAIVFKGLWEKAFKDEDTQAMPFRVTEQESKPVQMMYQIGLFRVASMASEKMKILELPFASGTMSMLVLLPDEVSGLEQLESIINFEKLTEWTSSNVMEERKIKVYLPRMKMEEKYNLTSVLMAMGITDVFSSSANLSGISSAESLKISQAVHAAHAEINEAGREVVGSAEAGVDAASVSEEFRADHPFLFCIKHIATNAVLFFGRCVSP | respond to oral consumption of OVA | – | – | lower expression
